Source: PubChem BioAssay AID2060505 (Molecular Pharmacology Branch, DTP, NCI, 2025)

System: 633275-114-R-J1-PDC complex spheroids, viability
Assay: Anticancer human tumor 633275-114-R-J1-PDC patient-derived endometrial adenocarcinoma cell line growth inhibition [GQUAD]
Conditions: for IC50: curve of first compound; for viability, T/C: stronger effect = lower value
Procedure, shortened: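 Multi-cell-type spheroids of tumor cells with HUVEC and mesenchymal stem cells, treated with drug combinations. Concentrations descend in half-log steps from near clinical Cmax, or from 10 microM where Cmax is unknown; viability read-out.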

[1] = second compound 0.0316 µM, first compound 0.0316 µM
[2] = second compound 0.0316 µM, first compound 0.1 µM
[3] = second compound 0.0316 µM, first compound 0.316 µM
[4] = second compound 0.0316 µM, first compound 1 µM
[5] = second compound 0.0316 µM, first compound 3.16 µM
[6] = second compound 0.0316 µM, first compound 10 µM
[7] = second compound 0.1 µM, first compound 0.0316 µM
[8] = second compound 0.1 µM, first compound 0.1 µM
[9] = second compound 0.1 µM, first compound 0.316 µM
[10] = second compound 0.1 µM, first compound 1 µM
[11] = second compound 0.1 µM, first compound 3.16 µM
[12] = second compound 0.1 µM, first compound 10 µM
[13] = second compound 0.316 µM, first compound 0.0316 µM
[14] = second compound 0.316 µM, first compound 0.1 µM
[15] = second compound 0.316 µM, first compound 0.316 µM
[16] = second compound 0.316 µM, first compound 1 µM
[17] = second compound 0.316 µM, first compound 3.16 µM
[18] = second compound 0.316 µM, first compound 10 µM
[19] = second compound 1 µM, first compound 0.0316 µM
[20] = second compound 1 µM, first compound 0.1 µM
[21] = second compound 1 µM, first compound 0.316 µM
[22] = second compound 1 µM, first compound 1 µM
[23] = second compound 1 µM, first compound 3.16 µM
[24] = second compound 1 µM, first compound 10 µM
[25] = second compound 3.16 µM, first compound 0.0316 µM
[26] = second compound 3.16 µM, first compound 0.1 µM
[27] = second compound 3.16 µM, first compound 0.316 µM
[28] = second compound 3.16 µM, first compound 1 µM
[29] = second compound 3.16 µM, first compound 3.16 µM
[30] = second compound 3.16 µM, first compound 10 µM
[31] = second compound 10 µM, first compound 0.0316 µM
[32] = second compound 10 µM, first compound 0.1 µM
[33] = second compound 10 µM, first compound 0.316 µM
[34] = second compound 10 µM, first compound 1 µM
[35] = second compound 10 µM, first compound 3.16 µM
[36] = second compound 10 µM, first compound 10 µM
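Note: spheroids exposed to the agents for seven days.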
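Throughout, for viability, T/C: percent of DMSO vehicle control viability which is 100%.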

CC1COCCN1c1cc(-c2ccnn2C)c2ccnc(-c3ccn[nH]3)c2n1 (stereo not given) + CN(C)c1ccc(Nc2c3ccc(NC(=O)CCN4CCCC4)cc3nc3cc(NC(=O)CCN4CCCC4)ccc23)cc1
IC50 (second compound 0.0316 µM): 136 nM | IC50 (second compound 0.1 µM): 163 nM | IC50 (second compound 0.316 µM): 175 nM | IC50 (second compound 1 µM): 144 nM | IC50 (second compound 3.16 µM): 90.5 nM | IC50 (second compound 10 µM): < 31.6 nM | viability, T/C [1]: 77% | viability, T/C [2]: 54.4% | viability, T/C [3]: 37.3% | viability, T/C [4]: 26.1% | viability, T/C [5]: 18% | viability, T/C [6]: 18.4% | viability, T/C [7]: 92.4% | viability, T/C [8]: 59.6% | viability, T/C [9]: 37.1% | viability, T/C [10]: 24.8% | viability, T/C [11]: 18.9% | viability, T/C [12]: 18.9% | viability, T/C [13]: 82.2% | viability, T/C [14]: 61.1% | viability, T/C [15]: 37.7% | viability, T/C [16]: 25.9% | viability, T/C [17]: 19.4% | viability, T/C [18]: 14.9% | viability, T/C [19]: 74.1% | viability, T/C [20]: 55.2% | viability, T/C [21]: 38.3% | viability, T/C [22]: 23.5% | viability, T/C [23]: 18.1% | viability, T/C [24]: 16.2% | viability, T/C [25]: 60.3% | viability, T/C [26]: 49.6% | viability, T/C [27]: 33.4% | viability, T/C [28]: 22.2% | viability, T/C [29]: 15.8% | viability, T/C [30]: 11.4% | viability, T/C [31]: 30.3% | viability, T/C [32]: 23.5% | viability, T/C [33]: 15.9% | viability, T/C [34]: 12.5% | viability, T/C [35]: 10.4% | viability, T/C [36]: 9.22%

Nc1ccn(C2OC(CO)C(O)C2(F)F)c(=O)n1 (stereo not given) + Cc1[nH]c2ccc(F)cc2c1-c1nc2c3cccnc3c3ncccc3c2[nH]1
IC50 (second compound 0.0316 µM): < 31.6 nM | IC50 (second compound 0.1 µM): < 31.6 nM | IC50 (second compound 0.316 µM): < 31.6 nM | IC50 (second compound 1 µM): < 31.6 nM | IC50 (second compound 3.16 µM): < 31.6 nM | IC50 (second compound 10 µM): < 31.6 nM | viability, T/C [1]: 29.7% | viability, T/C [2]: 25.6% | viability, T/C [3]: 25.9% | viability, T/C [4]: 26.4% | viability, T/C [5]: 22.9% | viability, T/C [6]: 24.4% | viability, T/C [7]: 33.2% | viability, T/C [8]: 24.3% | viability, T/C [9]: 26.4% | viability, T/C [10]: 27.3% | viability, T/C [11]: 24.8% | viability, T/C [12]: 20.9% | viability, T/C [13]: 31.2% | viability, T/C [14]: 28.8% | viability, T/C [15]: 26.1% | viability, T/C [16]: 24.2% | viability, T/C [17]: 27.1% | viability, T/C [18]: 19.9% | viability, T/C [19]: 30.9% | viability, T/C [20]: 25.6% | viability, T/C [21]: 26% | viability, T/C [22]: 25.9% | viability, T/C [23]: 24% | viability, T/C [24]: 20.1% | viability, T/C [25]: 26.1% | viability, T/C [26]: 24.4% | viability, T/C [27]: 22.6% | viability, T/C [28]: 23.4% | viability, T/C [29]: 25.7% | viability, T/C [30]: 17.9% | viability, T/C [31]: 26.8% | viability, T/C [32]: 24.5% | viability, T/C [33]: 23.8% | viability, T/C [34]: 24.1% | viability, T/C [35]: 22.5% | viability, T/C [36]: 18.8%

Nc1ccn(C2OC(CO)C(O)C2(F)F)c(=O)n1 (stereo not given) + Cc1cnc(CNC(=O)c2c(=O)c3ccc(N4CCCN(C)CC4)nc3n3c2sc2ccccc23)cn1
IC50 (second compound 0.0316 µM): < 31.6 nM | IC50 (second compound 0.1 µM): < 31.6 nM | IC50 (second compound 0.316 µM): < 31.6 nM | IC50 (second compound 1 µM): < 31.6 nM | IC50 (second compound 3.16 µM): < 31.6 nM | IC50 (second compound 10 µM): < 31.6 nM | viability, T/C [1]: 26.8% | viability, T/C [2]: 22.2% | viability, T/C [3]: 21.5% | viability, T/C [4]: 21.3% | viability, T/C [5]: 20.6% | viability, T/C [6]: 19.9% | viability, T/C [7]: 27.8% | viability, T/C [8]: 23.1% | viability, T/C [9]: 22.4% | viability, T/C [10]: 19.9% | viability, T/C [11]: 24.2% | viability, T/C [12]: 19.5% | viability, T/C [13]: 24.7% | viability, T/C [14]: 25.8% | viability, T/C [15]: 22.4% | viability, T/C [16]: 22.9% | viability, T/C [17]: 21.9% | viability, T/C [18]: 19.5% | viability, T/C [19]: 25.5% | viability, T/C [20]: 23.8% | viability, T/C [21]: 22.7% | viability, T/C [22]: 24% | viability, T/C [23]: 23% | viability, T/C [24]: 19.4% | viability, T/C [25]: 25.7% | viability, T/C [26]: 23.6% | viability, T/C [27]: 21.7% | viability, T/C [28]: 22% | viability, T/C [29]: 21.5% | viability, T/C [30]: 20.9% | viability, T/C [31]: 26.6% | viability, T/C [32]: 22.3% | viability, T/C [33]: 22.6% | viability, T/C [34]: 23.3% | viability, T/C [35]: 20.7% | viability, T/C [36]: 17.9%

COc1ccc([C@@H](O)c2cc(-c3ncnc4cc(N5CCOCC5)ccc34)c(F)cc2Cl)nn1 + CN(C)c1ccc(Nc2c3ccc(NC(=O)CCN4CCCC4)cc3nc3cc(NC(=O)CCN4CCCC4)ccc23)cc1
IC50 (second compound 0.0316 µM): 4670 nM | IC50 (second compound 0.1 µM): 3730 nM | IC50 (second compound 0.316 µM): 2640 nM | IC50 (second compound 1 µM): 1710 nM | IC50 (second compound 3.16 µM): 938 nM | IC50 (second compound 10 µM): < 31.6 nM | viability, T/C [1]: 108% | viability, T/C [2]: 97.2% | viability, T/C [3]: 83.7% | viability, T/C [4]: 74.7% | viability, T/C [5]: 55.7% | viability, T/C [6]: 37.6% | viability, T/C [7]: 96% | viability, T/C [8]: 102% | viability, T/C [9]: 88.9% | viability, T/C [10]: 71.1% | viability, T/C [11]: 55.3% | viability, T/C [12]: 32.3% | viability, T/C [13]: 92.5% | viability, T/C [14]: 91.6% | viability, T/C [15]: 93.5% | viability, T/C [16]: 65.3% | viability, T/C [17]: 49.8% | viability, T/C [18]: 30.9% | viability, T/C [19]: 91.8% | viability, T/C [20]: 88% | viability, T/C [21]: 81.3% | viability, T/C [22]: 59.6% | viability, T/C [23]: 38.7% | viability, T/C [24]: 26.8% | viability, T/C [25]: 84.2% | viability, T/C [26]: 81.2% | viability, T/C [27]: 73.7% | viability, T/C [28]: 46.9% | viability, T/C [29]: 30.6% | viability, T/C [30]: 20.4% | viability, T/C [31]: 33.8% | viability, T/C [32]: 34.8% | viability, T/C [33]: 21.5% | viability, T/C [34]: 13.8% | viability, T/C [35]: 11.8% | viability, T/C [36]: 9.3%

C=CCn1c(=O)c2cnc(Nc3ccc(N4CCN(C)CC4)cc3)nc2n1-c1cccc(C(C)(C)O)n1 + Cc1cnc(CNC(=O)c2c(=O)c3ccc(N4CCCN(C)CC4)nc3n3c2sc2ccccc23)cn1
IC50 (second compound 0.0316 µM): 129 nM | IC50 (second compound 0.1 µM): < 31.6 nM | IC50 (second compound 0.316 µM): < 31.6 nM | IC50 (second compound 1 µM): < 31.6 nM | IC50 (second compound 3.16 µM): < 31.6 nM | IC50 (second compound 10 µM): < 31.6 nM | viability, T/C [1]: 55.6% | viability, T/C [2]: 56% | viability, T/C [3]: 33.9% | viability, T/C [4]: 23.6% | viability, T/C [5]: 19.9% | viability, T/C [6]: 16.5% | viability, T/C [7]: 48.1% | viability, T/C [8]: 40% | viability, T/C [9]: 28.9% | viability, T/C [10]: 22.7% | viability, T/C [11]: 21.2% | viability, T/C [12]: 15.2% | viability, T/C [13]: 43.8% | viability, T/C [14]: 39.8% | viability, T/C [15]: 24.6% | viability, T/C [16]: 21.1% | viability, T/C [17]: 20.7% | viability, T/C [18]: 16.5% | viability, T/C [19]: 34.5% | viability, T/C [20]: 32.2% | viability, T/C [21]: 22.4% | viability, T/C [22]: 19.9% | viability, T/C [23]: 20.7% | viability, T/C [24]: 17.3% | viability, T/C [25]: 31.4% | viability, T/C [26]: 26.6% | viability, T/C [27]: 18.5% | viability, T/C [28]: 22.5% | viability, T/C [29]: 25% | viability, T/C [30]: 18.3% | viability, T/C [31]: 26.8% | viability, T/C [32]: 20.5% | viability, T/C [33]: 16.8% | viability, T/C [34]: 17.8% | viability, T/C [35]: 22.4% | viability, T/C [36]: 19.5%
